Tests used:
[1] = Dialysis diffusion: effect of concentration and sample size (same quantity of flumazenil); format: physicochemical; conditions: for precipitation in bags during the dialysis: rank A < B < C
Procedure: (§1) Dialysis tubing cellulose membrane was cut into approximately 8 cm lengths, washed with hot water for 3 hours. Tubing was then treated with 0.3% (w/v) solution of sodium sulfide at 80° C. for 1 minute, washed with hot water (60° C.) for 2 minutes and followed by acidification with 0.2% sulfuric acid. Tubing was then rinsed with hot water to remove the acid. Test formulations were added, the tubing closed with nylon closures and placed in the dialysate. At various time periods, the dialysate was sampled and the flumazenil released measured by HPLC assay.
Experiments were conducted to test the effect of different concentrations and different sample sizes (but same quantity of flumazenil) on diffusion rate.
(§2) As described in 1.1 with 600 ml of phosphate buffer pH 4.0 as dialysate.
(§3) A=0.25 g of a 1.5% flumazenil solution in NMP
B=0.125 g of a 3% flumazenil solution in NMP
C=0.083 g of a 4.5% flumazenil solution in NMP

[2] = Dialysis diffusion: effect of sample concentration; format: physicochemical
Procedure: as §1
Experiments were conducted to test the effect of sample concentration on diffusion rate.
as §2, §3
B=0.25 g of a 3.0% flumazenil solution in NMP
C=0.25 g of a 4.5% flumazenil solution in NMP

methamphetamine cravings = conditions: clinical trials, along with hydroxyzine and gabapentin; cited from earlier work
[3] = Dialysis diffusion: effect of dialysate volume; format: physicochemical; conditions: 0.25 g of 3% solution in NMP
Procedure: Dissolution apparatus: Vankel VK 7000 (Agilent Technologies Australia)
Dialysis bags: dialysis tubing cellulose membrane from Sigma-Aldrich Australia—average flat width 25 mm, average diameter 16 mm (when full), retains >90% of cytocrome C (M.W. 12.400) in solution over a 10 hrs period.
as §1
Chromatography column: C18-250 mm×4.6 mm×5 μm (Sigma Aldrich Australia)
Mobile phase: H2O pH 2:methanol:tetrahydrofuran (80:13:7)
Injection volume: 10 μl and 100 μl
Experiments were conducted to check the influence of the volume of the dialysis medium (dialysate) on diffusion rate.
A=800 ml of phosphate buffer pH 4.0
B=600 ml of phosphate buffer pH 4.0
0.25 g of 3% flumazenil solution in N-Methyl-2-Pyrrolidinone (NMP)

For `CCOC(=O)c1ncn2c1CN(C)C(=O)c1cc(F)ccc1-2` [flumazenil, ethyl 8-fluoro-5,6-dihydro-5-methyl-6-oxo-4H-imidazo[1,5-a](1,4)benzodiazepine-3-carboxylate], the “% flumazenil released” value ([1]; sample B2 (0.125 g of 3% solution in NMP), 6 h) was 100.6%, the “precipitation in bags during the dialysis” value ([1]; sample B (0.125 g of 3% solution in NMP)) was “precipitation was observed” and the “% flumazenil released” value ([1]; sample C1 (0.083 g of 4.5% solution in NMP), 1 h) was 56.1%. The “% flumazenil released” value ([1]; sample C1 (0.083 g of 4.5% solution in NMP), 2 h) was 79.3%, the “% flumazenil released” value ([1]; sample C1 (0.083 g of 4.5% solution in NMP), 3 h) was 92.3% and the “% flumazenil released” value ([1]; sample C1 (0.083 g of 4.5% solution in NMP), 4 h) was 98.1%. For the same compound, the “% flumazenil released” value ([1]; sample C1 (0.083 g of 4.5% solution in NMP), 5 h) was 100.1%, the “% flumazenil released” value ([1]; sample C1 (0.083 g of 4.5% solution in NMP), 6 h) was 100.7% and the “% flumazenil released” value ([1]; sample C2 (0.083 g of 4.5% solution in NMP), 1 h) was 43.5%. For the same compound, the “% flumazenil released” value ([1]; sample C2 (0.083 g of 4.5% solution in NMP), 2 h) was 66.1%, the “% flumazenil released” value ([1]; sample C2 (0.083 g of 4.5% solution in NMP), 3 h) was 82.3% and the “% flumazenil released” value ([1]; sample C2 (0.083 g of 4.5% solution in NMP), 4 h) was 93.6%. For the same compound, the “% flumazenil released” value ([1]; sample C2 (0.083 g of 4.5% solution in NMP), 5 h) was 99.2%, the “% flumazenil released” value ([1]; sample C2 (0.083 g of 4.5% solution in NMP), 6 h) was 101.2% and the “precipitation in bags during the dialysis” value ([1]; sample C (0.083 g of 4.5% solution in NMP)) was “precipitation was observed”. For the same compound, the “% flumazenil released” value ([2]; sample A1 (0.25 g of 1.5% solution in NMP), 1 h) was 92.9%, the “% flumazenil released” value ([2]; sample A1 (0.25 g of 1.5% solution in NMP), 2 h) was 100.5% and the “% flumazenil released” value ([2]; sample A1 (0.25 g of 1.5% solution in NMP), 3 h) was 101.4%. The “% flumazenil released” value ([2]; sample A2 (0.25 g of 1.5% solution in NMP), 1 h) was 89.8%, the “% flumazenil released” value ([2]; sample A2 (0.25 g of 1.5% solution in NMP), 2 h) was 100% and the “% flumazenil released” value ([2]; sample A2 (0.25 g of 1.5% solution in NMP), 3 h) was 101.4%. The “precipitation during the dialysis” value ([2]; sample A (0.25 g of 1.5% solution in NMP)) was “no precipitation was observed”, the “% flumazenil released” value ([2]; sample B1 (0.25 g of 3.0% solution in NMP), 1 h) was 62.1% and the “% flumazenil released” value ([2]; sample B1 (0.25 g of 3.0% solution in NMP), 2 h) was 74.8%. For the same compound, the “% flumazenil released” value ([2]; sample B2 (0.25 g of 3.0% solution in NMP), 1 h) was 62.0%, the “% flumazenil released” value ([2]; sample B2 (0.25 g of 3.0% solution in NMP), 2 h) was 76.3% and the “precipitation during the dialysis” value ([2]; sample B (0.25 g of 3.0% solution in NMP)) was “Precipitation was observed”. The “% flumazenil released” value ([2]; sample C1 (0.25 g of 4.5% solution in NMP), 1 h) was 27.5%, the “% flumazenil released” value ([2]; sample C1 (0.25 g of 4.5% solution in NMP), 2 h) was 40.4% and the “% flumazenil released” value ([2]; sample C2 (0.25 g of 4.5% solution in NMP), 1 h) was 29.1%. For the same compound, the “% flumazenil released” value ([2]; sample C2 (0.25 g of 4.5% solution in NMP), 2 h) was 43.0%, the “precipitation during the dialysis” value ([2]; sample C (0.25 g of 4.5% solution in NMP)) was “Precipitation was observed” and the methamphetamine cravings (methamphetamine cravings) was “substantially reduce methamphetamine cravings”. For the same compound, the “% flumazenil released” value ([3]; A1 (800 ml dialysate pH 4.0), 1 h) was 57.6%, the “% flumazenil released” value ([3]; A1 (800 ml dialysate pH 4.0), 2 h) was 73.1% and the “% flumazenil released” value ([3]; A1 (800 ml dialysate pH 4.0), 4 h) was 94.5%. The “% flumazenil released” value ([3]; A1 (800 ml dialysate pH 4.0), 6 h) was 100.9%, the “% flumazenil released” value ([3]; A1 (800 ml dialysate pH 4.0), 24 h) was 100.7% and the “% flumazenil released” value ([3]; A2 (800 ml dialysate pH 4.0), 1 h) was 50.3%. For the same compound, the “% flumazenil released” value ([3]; A2 (800 ml dialysate pH 4.0), 2 h) was 66.0%, the “% flumazenil released” value ([3]; A2 (800 ml dialysate pH 4.0), 4 h) was 88.6% and the “% flumazenil released” value ([3]; A2 (800 ml dialysate pH 4.0), 6 h) was 98.9%. The “% flumazenil released” value ([3]; A2 (800 ml dialysate pH 4.0), 24 h) was 101.7%, the “% flumazenil released” value ([3]; B1 (600 ml dialysate pH 4.0), 1 h) was 52.2% and the “% flumazenil released” value ([3]; B1 (600 ml dialysate pH 4.0), 2 h) was 69.2%. The “% flumazenil released” value ([3]; B1 (600 ml dialysate pH 4.0), 4 h) was 92.7%, the “% flumazenil released” value ([3]; B1 (600 ml dialysate pH 4.0), 6 h) was 99.2% and the “% flumazenil released” value ([3]; B1 (600 ml dialysate pH 4.0), 24 h) was 100.64%. For the same compound, the “% flumazenil released” value ([3]; B2 (600 ml dialysate pH 4.0), 1 h) was 50.5%, the “% flumazenil released” value ([3]; B2 (600 ml dialysate pH 4.0), 2 h) was 66.5% and the “% flumazenil released” value ([3]; B2 (600 ml dialysate pH 4.0), 4 h) was 89.2%. The “% flumazenil released” value ([3]; B2 (600 ml dialysate pH 4.0), 6 h) was 98.0%, the “% flumazenil released” value ([3]; B2 (600 ml dialysate pH 4.0), 24 h) was 99.2% and the “time to reach equilibrium” value ([3]; dialysate A (800 ml)) was “around 6 hours”. The “time to reach equilibrium” value ([3]; dialysate B (600 ml)) was “around 6 hours”.

From patent US20160120877A1, “PHARMACEUTICAL COMPOSITIONS FOR SUSTAINED DELIVERY OF BENZODIAZEPINE ANTAGONISTS” (priority 2010, published 2016)
